How the values were obtained:
LPAR3 = LPAR3 (Homo sapiens (Human), UniProt Q9UBY5); test: Calcium flux assay using FLIPR, LPAR3 antagonist activity; assay type: cell-based; conditions: for IC50: antagonist mode, calcium flux
Method: (§1) Calcium Flux Assay Using Fluorometric Imaging Plate Reader (FLIPR)
(§2) Dye Loading and Assay: Loading Buffer (FLIPR Calcium-4, Molecular Devices) was prepared by dissolving the contents of one bottle into 100 mL Hank's Balanced Salt Solution containing 20 mM HEPES and 2.5 mM probenecid. Plates were loaded onto Biotek plate washer and growth media was removed and replaced with 20 μL of Hank's Balanced Salt Solution containing 20 mM HEPES and 2.5 mM probenecid, followed by 25 μL of Loading Buffer. The plates were then incubated for 30 minutes at 37° C.
(§3) During the incubation, test compounds were prepared by adding 90 μL of HBSS/20 mM HEPES/0.1% BSA buffer to 2 μL of serially diluted compounds. To prepare serial dilutions, 10 mM stocks of compounds were prepared in 100% DMSO. The compound dilution plate was set up as follows: well #1 received 29 μL of stock compound and 31 μL DMSO. Wells 2-10 received 40 μL of DMSO. After mixing, 20 μL of solution from well #1 was transferred into well #2, followed by 1:3 serial dilutions out 10 steps. 2 μL of diluted compound was transferred into duplicate wells of 384 well “assay plate” and then 90 μL of buffer was added.
(§4) After incubation, both the cell and “assay” plates were brought to the FLIPR and 20 μL of the diluted compounds were transferred to the cell plates by the FLIPR. Compound addition was monitored by the FLIPR to detect any agonist activity of the compounds. Plates were then incubated for 30 minutes at room temperature protected from light. After the incubation, plates were returned to the FLIPR and 20 μL of 4.5× concentrated agonist was added to the cell plates. During the assay, fluorescence readings were taken simultaneously from all 384 wells of the cell plate every 1.5 seconds. Five readings were taken to establish a stable baseline, then 20 μL of sample was rapidly (30 μL/sec) and simultaneously added to each well of the cell plate. The fluorescence was continuously monitored before, during and after sample addition for a total elapsed time of 100 seconds. Responses (increase in peak fluorescence) in each well following agonist addition was determined. The initial fluorescence reading from each well, prior to ligand stimulation, was used as zero baseline value for the data from that well. The responses were expressed as % inhibition of the buffer control. The IC50 value, defined as the concentration of a compound that is required for 50% inhibition of the buffer control, was calculated by fitting the percent inhibition data for 10 concentrations to a sigmoidal dose-response (4 parameter logistic) model using Genedata Condoseo program [model 205, F(x)=(A+(B−A)/(1+((C/x)^D))))].

[1] = molecular target: human recombinant LPA1 Lysophospholipid receptor (Homo sapiens (Human), UniProt Q92633); test: Calcium flux assay using FLIPR, LPAR1 antagonist activity; assay type: cell-based; conditions: for IC50: ChemiScreen stable cell line, antagonist mode, calcium flux
Chain of human recombinant LPA1 Lysophospholipid receptor (Q92633 whole entry): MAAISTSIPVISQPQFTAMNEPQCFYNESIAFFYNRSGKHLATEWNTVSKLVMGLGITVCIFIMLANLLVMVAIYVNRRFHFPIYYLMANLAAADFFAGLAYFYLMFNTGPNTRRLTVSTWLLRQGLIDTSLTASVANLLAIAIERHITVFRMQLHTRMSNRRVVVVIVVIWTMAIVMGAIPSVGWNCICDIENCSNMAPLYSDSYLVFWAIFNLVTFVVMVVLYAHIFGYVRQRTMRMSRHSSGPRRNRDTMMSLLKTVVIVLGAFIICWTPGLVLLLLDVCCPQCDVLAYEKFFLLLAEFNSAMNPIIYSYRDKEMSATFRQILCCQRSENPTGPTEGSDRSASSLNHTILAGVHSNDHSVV
Method: as §1
Cell Culture Conditions: The ChemiScreen Calcium-optimized stable cell line containing the human recombinant LPA1 Lysophospholipid receptor was purchased from Chemicon International, Inc./Millipore. The cells were cultured in DMEM-high glucose supplemented with 10% fetal bovine serum, 2 mM glutamine, 100 U/mL penicillin/100 μg/mL streptomycin, 1× non-essential amino acids, 10 mM HEPES and 0.25 mg/mL Geneticin. Cells were harvested with trypsin-EDTA and counted using ViaCount reagent. The cell suspension volume was adjusted to 2.0×10^5 cells/mL with complete growth media. Aliquots of 50 μL were dispensed into 384 well black/clear tissue culture treated plates (BD) and the microplates were placed in a 37° C. incubator overnight. The following day plates were used in the assay.
as §2, §3, §4

Chain of LPAR3 (Q9UBY5 whole entry, species assumed): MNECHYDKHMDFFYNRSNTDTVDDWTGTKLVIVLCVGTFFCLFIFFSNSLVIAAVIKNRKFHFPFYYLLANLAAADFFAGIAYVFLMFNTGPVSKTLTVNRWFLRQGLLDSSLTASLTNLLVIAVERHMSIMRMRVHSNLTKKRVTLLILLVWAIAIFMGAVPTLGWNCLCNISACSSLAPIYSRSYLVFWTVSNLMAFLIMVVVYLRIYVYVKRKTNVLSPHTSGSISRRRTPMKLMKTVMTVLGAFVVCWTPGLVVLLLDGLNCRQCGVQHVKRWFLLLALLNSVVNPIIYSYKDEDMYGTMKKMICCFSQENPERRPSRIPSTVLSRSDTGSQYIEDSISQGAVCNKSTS

IC50 (LPAR3) [µM] | inhibition at 30 µM (LPAR3) [%] | IC50 [1] [nM] | inhibition at 30 µM ([1]; at 30 μM) [%] | SMILES
18.4 | 62 | 4450 |  | C[C@@H](OC(=O)Nc1c(-c2ccc(-c3cccc(C4(C(=O)O)CC4)c3)cc2)nnn1C)c1ccccc1 [Example 9, (R)-1-(4′-(1-Methyl-5-((1-phenylethoxy)carbonylamino)-1H-1,2,3-triazol-4-yl)biphenyl-3-yl)cyclopropanecarboxylic acid]
6.31 |  | 2660 |  | C[C@H](OC(=O)Nc1c(-c2ccc(-c3ccc(C4(C(=O)O)CC4)cc3)cc2)nnn1C)c1cccc(C(F)(F)F)c1 [Example 5, 1-(4′-{1-Methyl-5-[(S)-1-(3-trifluoromethyl-phenyl)-ethoxycarbonylamino]-1H-[1,2,3]triazol-4-yl}-biphenyl-4-yl)-cyclopropanecarboxylic acid]
0.132 |  | 18 |  | C[C@@H](OC(=O)Nc1c(-c2ccc(-c3ccc(C4(C(=O)O)CC4)cc3)cc2)nnn1C)c1cccc(C(F)(F)F)c1 [Example 6, 1-(4′-{1-Methyl-5-[(R)-1-(3-trifluoromethyl-phenyl)-ethoxycarbonylamino]-1H-[1,2,3]triazol-4-yl}-biphenyl-4-yl)-cyclopropanecarboxylic acid]
18.6 | 68 | 58 |  | C[C@@H](OC(=O)Nc1c(-c2ccc(C3CCC(CC(=O)O)CC3)cc2)nnn1C)c1ccccc1 (stereo partly drawn) [Example 14, (4-{4-[1-Methyl-5-((R)-1-phenyl-ethoxycarbonylamino)-1H-[1,2,3]triazol-4-yl]-phenyl}-cyclohexyl)-acetic acid]
0.0657 |  | 24.5 |  | C[C@@H](OC(=O)Nc1c(-c2ccc(-c3ccc(C4(C(=O)NS(C)(=O)=O)CC4)cc3)cc2)nnn1C)c1cccc(C(F)(F)F)c1 [Example 13, {5-[4′-(1-Methanesulfonylaminocarbonyl-cyclopropyl)-biphenyl-4-yl]-3-methyl-3H-[1,2,3]triazol-4-yl}-carbamic acid (R)-1-(3-trifluoromethyl-phenyl)-ethyl ester]
> 30 |  | 21900 | 52.3 | C[C@@H](OC(=O)Nc1c(-c2ccc(Br)cc2)nnn1C)c1ccccc1 [Example 1, [5-(4-Bromo-phenyl)-3-methyl-3H-[1,2,3]triazol-4-yl]-carbamic acid (R)-1-phenyl-ethyl ester]
> 30 |  | > 30000 |  | COC(=O)C1(c2ccc(-c3ccc(-c4nnn(C)c4NC(=O)O[C@H](C)c4ccccc4)c(F)c3)cc2)CC1 [Example 10, 1-{3′-Fluoro-4′-[1-methyl-5-((R)-1-phenyl-ethoxycarbonylamino)-1H-[1,2,3]triazole-4-yl]-biphenyl-4-yl}-cyclopropanecarboxylic acid methyl ester]

Second part, the compound before the results:

SMILES | IC50 (LPAR3) [µM] | inhibition at 30 µM (LPAR3) [%] | IC50 [1] [nM] | inhibition at 30 µM ([1]; at 30 μM) [%]
C[C@@H](OC(=O)Nc1c(-c2ccc(-c3ccc(CC(=O)O)cc3)cc2)nnn1C)c1ccccc1 [Example 3, {4′-[1-Methyl-5-((R)-1-phenyl-ethoxycarbonylamino)-1H-[1,2,3]triazol-4-yl]-biphenyl-4-yl}-acetic acid] | 21.9 | 58.2 | 48 | 
CC(OC(=O)Nc1c(-c2ccc(-c3ccc(C4(C(=O)O)CC4)cc3)cc2)nnn1C)c1cccc(C(F)(F)F)c1 (racemic) [Example 4, 1-(4′-{1-Methyl-5-[1-(3-trifluoromethyl-phenyl)-ethoxycarbonylamino]-1H-[1,2,3]triazol-4-yl}-biphenyl-4-yl)-cyclopropanecarboxylic acid] | 0.279 |  | 46 | 
C[C@@H](OC(=O)Nc1c(-c2ccc(-c3ccc(C4(C(=O)O)CC4)cc3)cc2F)nnn1C)c1ccccc1 [Example 11, 1-{3′-Fluoro-4′-[1-methyl-5-((R)-1-phenyl-ethoxycarbonylamino)-1H-[1,2,3]triazole-4-yl]-biphenyl-4-yl}-cyclopropanecarboxylic acid] | 27.4 | 62 | 18 | 
C[C@@H](OC(=O)Nc1c(-c2ccc(-c3ccc(C4(C(=O)NS(C)(=O)=O)CC4)cc3)cc2)nnn1C)c1ccccc1 [Example 12, {5-[4′-(1-Methanesulfonylaminocarbonyl-cyclopropyl)-biphenyl-4-yl]-3-methyl-3H-[1,2,3]triazol-4-yl}-carbamic acid (R)-1-phenyl-ethyl ester] | 2.31 |  | 18.8 | 
C[C@@H](OC(=O)Nc1c(-c2ccc(-c3ccc(C4(C(=O)O)CC4)cc3)cc2)nnn1C)c1ccccc1 [Example 2, 1-{4′-[1-Methyl-5-((R)-1-phenyl-ethoxycarbonylamino)-1H-[1,2,3]triazol-4-yl]-biphenyl-4-yl}-cyclopropanecarboxylic acid] | 2.29 |  | 18 | 
C[C@@H](OC(=O)Nc1nnn(C)c1-c1ccc(-c2ccc(C3(C(=O)O)CC3)cc2)cc1)c1ccccc1 [Example 8, 1-{4′-[3-Methyl-5-((R)-1-phenyl-ethoxycarbonylamino)-3H-[1,2,3]triazol-4-yl]-biphenyl-4-yl}-cyclopropanecarboxylic acid] | > 30 |  | > 30000 | 
CC(C)[C@@H](C)OC(=O)Nc1c(-c2ccc(-c3ccc(C4(C(=O)O)CC4)cc3)cc2)nnn1C [Example 7, 1-{4′-[5-((R)-1,2-Dimethyl-propoxycarbonylamino)-1-methyl-1H-[1,2,3]triazol-4-yl]biphenyl-4-yl}-cyclopropanecarboxylic acid] | > 30 |  | 70 | 

Source: patent US9321738B2, “N-alkyltriazole compounds as LPAR antagonists” (Hoffmann-La Roche Inc., priority 2012, dated 2016)
